# Measurements reported in ChEMBL document CHEMBL1201862, “PubChem BioAssay data set” (2004).
#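 Exposure lasted 48 hours, with cells grown in 96-well plates and compounds tested at five concentrations. Abbreviation: GI50, concentration required for 50% inhibition of growth.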 Active and inactive are the calls of the source. Cut-off read from the data, not from the text of the source: active = GI50 up to about 1.1 µM and inactive = higher.
# Key:
# Assay in all cases: inhibition of tumour cell growth, NCI panel, 48 h
# EKVX = test system: EKVX
# SNB-19 = test system: SNB-19
# NCI-H226 = test system: NCI-H226
# ACHN = test system: ACHN
# SK-OV-3 = test system: SK-OV-3
# CCRF-CEM = test system: CCRF-CEM
# SR = test system: SR
# HCT-15 = test system: HCT-15
# OVCAR-8 = test system: OVCAR-8
# 786-0 = test system: 786-0
# SNB-75 = test system: SNB-75
# LOX IMVI = test system: LOX IMVI
# RPMI-8226 = test system: RPMI-8226
# UO-31 = test system: UO-31
# OVCAR-3 = test system: OVCAR-3
# SF-268 = test system: SF-268
# COLO 205 = test system: COLO 205
# SK-MEL-28 = test system: SK-MEL-28
# HL-60 = test system: HL-60
SMILES,GI50 (EKVX),GI50 (SNB-19),GI50 (NCI-H226),GI50 (ACHN),GI50 (SK-OV-3),GI50 (CCRF-CEM),GI50 (SR),GI50 (HCT-15) [µM],GI50 (OVCAR-8),GI50 (786-0),GI50 (SNB-75),GI50 (LOX IMVI),GI50 (RPMI-8226),GI50 (UO-31),GI50 (OVCAR-3),GI50 (SF-268),GI50 (COLO 205),GI50 (SK-MEL-28),GI50 (HL-60)
C=C(C)[C@H]1CC[C@@]2(C)C(C1)[C@H](C)CC[C@@H]2O (stereo partly drawn),> 100 µM (inactive),> 100 µM (inactive),> 100 µM (inactive),> 100 µM (inactive),> 100 µM (inactive),> 100 µM (inactive),> 100 µM (inactive),> 100,> 100 µM (inactive),> 100 µM (inactive),> 100 µM (inactive),> 100 µM (inactive),> 100 µM (inactive),> 100 µM (inactive),> 100 µM (inactive),> 100 µM (inactive),> 100 µM (inactive),> 100 µM (inactive),–
COC(=O)C1Cc2c([nH]c3ccccc23)C(c2ccccc2O)N1 (stereo not drawn),> 100 µM (inactive),> 100 µM (inactive),> 100 µM (inactive),58.1 µM (inactive),> 100 µM (inactive),45.4 µM (inactive),> 100 µM (inactive),30.5,68.1 µM (inactive),69.8 µM (inactive),88.1 µM (inactive),60.8 µM (inactive),–,43.1 µM (inactive),49.7 µM (inactive),–,35.3 µM (inactive),> 100 µM (inactive),28.5 µM (inactive)
O=C(/C=C1\Nc2ccccc2C(=O)N1c1ccc(Cl)cc1)c1ccncc1,> 100 µM (inactive),> 100 µM (inactive),> 100 µM (inactive),> 100 µM (inactive),> 100 µM (inactive),> 100 µM (inactive),> 100 µM (inactive),> 100,> 100 µM (inactive),71.6 µM (inactive),20.7 µM (inactive),–,> 100 µM (inactive),> 100 µM (inactive),> 100 µM (inactive),> 100 µM (inactive),> 100 µM (inactive),> 100 µM (inactive),> 100 µM (inactive)
O=C(c1ccccc1)C1CCCCN1C(=O)c1ccccc1 (stereo not drawn),–,> 100 µM (inactive),> 100 µM (inactive),> 100 µM (inactive),> 100 µM (inactive),> 100 µM (inactive),> 100 µM (inactive),> 100,> 100 µM (inactive),> 100 µM (inactive),> 100 µM (inactive),–,> 100 µM (inactive),> 100 µM (inactive),> 100 µM (inactive),> 100 µM (inactive),> 100 µM (inactive),> 100 µM (inactive),> 100 µM (inactive)
C=CCNC1=NC(=O)C(CC(=O)Nc2ccc([N+](=O)[O-])cc2[N+](=O)[O-])S1 (stereo not drawn),> 100 µM (inactive),> 100 µM (inactive),> 100 µM (inactive),90.6 µM (inactive),> 100 µM (inactive),> 100 µM (inactive),–,> 100,> 100 µM (inactive),> 100 µM (inactive),66.5 µM (inactive),–,–,84.5 µM (inactive),> 100 µM (inactive),> 100 µM (inactive),> 100 µM (inactive),> 100 µM (inactive),52.5 µM (inactive)
CC[C@@]12N=C(N(C)C)C[C@]1(O)ON=C2C,> 100 µM (inactive),> 100 µM (inactive),> 100 µM (inactive),> 100 µM (inactive),> 100 µM (inactive),> 100 µM (inactive),> 100 µM (inactive),> 100,> 100 µM (inactive),> 100 µM (inactive),> 100 µM (inactive),–,> 100 µM (inactive),> 100 µM (inactive),> 100 µM (inactive),> 100 µM (inactive),> 100 µM (inactive),> 100 µM (inactive),> 100 µM (inactive)
CC(C)(C)c1cc(C(=O)O)c2c(c1)C(=O)OC2(c1ccccc1)c1ccccc1C(=O)O (stereo not drawn),> 100 µM (inactive),> 100 µM (inactive),23.9 µM (inactive),77.3 µM (inactive),0.0611 µM (active),> 100 µM (inactive),> 100 µM (inactive),> 100,> 100 µM (inactive),> 100 µM (inactive),90.4 µM (inactive),> 100 µM (inactive),–,> 100 µM (inactive),> 100 µM (inactive),> 100 µM (inactive),41.1 µM (inactive),> 100 µM (inactive),> 100 µM (inactive)
O=C1c2ccccc2N2OC3C4CCC(C4)C3C12c1ccccc1 (stereo not drawn),> 100 µM (inactive),> 100 µM (inactive),> 100 µM (inactive),> 100 µM (inactive),> 100 µM (inactive),44.2 µM (inactive),44.1 µM (inactive),45.8,> 100 µM (inactive),> 100 µM (inactive),> 100 µM (inactive),–,37.1 µM (inactive),71.3 µM (inactive),–,> 100 µM (inactive),> 100 µM (inactive),87.3 µM (inactive),33.5 µM (inactive)
Cc1nc2ccccc2c(=O)n1/N=C(\N=N\c1ccccc1Cl)c1ccccc1,20.8 µM (inactive),74.1 µM (inactive),–,–,31 µM (inactive),17.3 µM (inactive),–,22.2,31.3 µM (inactive),19 µM (inactive),–,24.8 µM (inactive),17 µM (inactive),28 µM (inactive),–,46.3 µM (inactive),21.5 µM (inactive),41.5 µM (inactive),15.3 µM (inactive)
CC(C)(C)OC(=O)N1N=NC2C3OC(CC3=O)C21 (stereo not drawn),> 100 µM (inactive),> 100 µM (inactive),2.8 µM (inactive),> 100 µM (inactive),18.6 µM (inactive),40.9 µM (inactive),77.4 µM (inactive),> 100,> 100 µM (inactive),> 100 µM (inactive),> 100 µM (inactive),> 100 µM (inactive),> 100 µM (inactive),> 100 µM (inactive),> 100 µM (inactive),> 100 µM (inactive),> 100 µM (inactive),> 100 µM (inactive),–
O=C(OCC1CO1)c1cccs1 (stereo not drawn),> 100 µM (inactive),> 100 µM (inactive),–,> 100 µM (inactive),> 100 µM (inactive),> 100 µM (inactive),–,> 100,> 100 µM (inactive),> 100 µM (inactive),37 µM (inactive),> 100 µM (inactive),> 100 µM (inactive),> 100 µM (inactive),> 100 µM (inactive),> 100 µM (inactive),> 100 µM (inactive),> 100 µM (inactive),> 100 µM (inactive)
O=C1C2C=CC(C2)C(c2ccc(O)cc2)N1O (stereo not drawn),> 100 µM (inactive),> 100 µM (inactive),> 100 µM (inactive),> 100 µM (inactive),> 100 µM (inactive),> 100 µM (inactive),> 100 µM (inactive),–,> 100 µM (inactive),> 100 µM (inactive),> 100 µM (inactive),–,> 100 µM (inactive),> 100 µM (inactive),> 100 µM (inactive),> 100 µM (inactive),> 100 µM (inactive),> 100 µM (inactive),> 100 µM (inactive)
CNC(=S)NNC(=O)c1c(C)nc2sccn12,> 100 µM (inactive),99.5 µM (inactive),> 100 µM (inactive),> 100 µM (inactive),> 100 µM (inactive),> 100 µM (inactive),> 100 µM (inactive),> 100,> 100 µM (inactive),> 100 µM (inactive),–,> 100 µM (inactive),–,–,> 100 µM (inactive),> 100 µM (inactive),> 100 µM (inactive),> 100 µM (inactive),> 100 µM (inactive)
COC(=O)[C@@]12C3=NO[C@]1(C(=O)OC)C(O[Si](C)(C)C(C)(C)C)[C@H]1OC(C)(C)O[C@H]1[C@@H]2C(OCc1ccccc1)CC3 (stereo partly drawn),89.1 µM (inactive),25.8 µM (inactive),88.7 µM (inactive),13.2 µM (inactive),25.6 µM (inactive),> 100 µM (inactive),–,> 100,92.5 µM (inactive),70.5 µM (inactive),17.9 µM (inactive),69 µM (inactive),> 100 µM (inactive),41.3 µM (inactive),46.5 µM (inactive),–,57.1 µM (inactive),> 100 µM (inactive),6.49 µM (inactive)
COc1cc(/C=C\c2ccc(O)cc2)cc(OC)c1OC,9.93 µM (inactive),2.56 µM (inactive),22.3 µM (inactive),8.17 µM (inactive),3.88 µM (inactive),3.72 µM (inactive),–,0.518,6.95 µM (inactive),8.59 µM (inactive),3.94 µM (inactive),5.19 µM (inactive),0.402 µM (active),10.4 µM (inactive),2.32 µM (inactive),0.555 µM (active),5.57 µM (inactive),1.91 µM (inactive),10.3 µM (inactive)
Cn1cnc([N+](=O)[O-])c1Sc1nc2ccccc2s1,3.96 µM (inactive),14.5 µM (inactive),9.84 µM (inactive),15 µM (inactive),15.5 µM (inactive),–,3.48 µM (inactive),2.99,4.07 µM (inactive),11.8 µM (inactive),15.6 µM (inactive),15.3 µM (inactive),12.5 µM (inactive),9.57 µM (inactive),3.7 µM (inactive),7.19 µM (inactive),3.33 µM (inactive),9.1 µM (inactive),–
